Measurements: publication PMC8179208, “Unravelling the mechanisms controlling heme supply and demand” (Proceedings of the National Academy of Sciences of the …, 2021)

Molecular target: T1, mAPXmEGFP (Glycine max, UniProt Q43758, K14D/E112K)
T1 construct: gene apx1; monomeric K14D/E112K APX fused to mEGFP reporter; N-terminal His tag, pLEICS-45; pea, Pisum sativum, possible
T1 sequence (Q43758 1-250 K14D/E112K): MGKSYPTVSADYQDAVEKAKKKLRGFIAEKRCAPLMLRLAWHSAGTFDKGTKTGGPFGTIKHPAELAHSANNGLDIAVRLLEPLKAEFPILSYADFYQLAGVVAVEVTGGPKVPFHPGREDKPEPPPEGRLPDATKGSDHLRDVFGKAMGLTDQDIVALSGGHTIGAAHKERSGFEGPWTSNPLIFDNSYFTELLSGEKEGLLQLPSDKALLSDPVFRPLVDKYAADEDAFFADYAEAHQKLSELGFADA
Assay: time-correlated single-photon counting fluorescence lifetime titration of apo protein, […] binding model
Settings: 37 °C, 10 mM potassium phosphate pH 7, 1 uM protein

## C=CC1=C(C)C2=Cc3c(C=C)c(C)c4[n]3[Fe]([Cl])[n]3c(c(C)c(CCC(=O)O)c3=CC3=NC(=C4)C(C)=C3CCC(=O)O)=CC1=N2 [heme]
  Kd: 22 nM
